Our source for the IC50 values is paper PMC3703888, “Integration of Different “-omics” Technologies Identifies Inhibition of the IGF1R-Akt-mTOR Signaling Cascade Involved in the Cytotoxic Effect of Shikonin against Leukemia Cells” (Evidence-based Complementary and Alternative Medicine : eCAM, 2013).

The target of one experiment is T1, IGF1R (Homo sapiens, UniProt P08069).
T1 construct: purchased ProQinase GmbH (Freiburg, Germany)
In words: Radiometric protein kinase assay (33PanQinase Activity Assay). It is filed as biochemical. The following applies: purified IGF1R kinase, nonlinear regression. The procedure:
The kinase inhibition assay was performed by ProQinase GmbH (Freiburg, Germany). Shikonin was provided as 1.85 × 10^−3 M stock solution in DMSO. In the process, shikonin was serially diluted in semi-log steps with 100% DMSO in a 96-well microtiter plate. Directly before use, shikonin was further diluted 1 : 10 with water. Shikonin was tested at 10 final assay concentrations in the range from 1.85 × 10^−5 M to 5.55 × 10^−10 M. The final DMSO concentration in the reaction cocktails was 1% in all cases. A radiometric protein kinase assay (^33PanQinase Activity Assay) was used for measuring the kinase activity of IGF1R. All kinase assays were performed in 96-well FlashPlates from Perkin Elmer (Boston, MA, USA) in a 50 μL reaction volume. […] Incorporation of ^33Pi (counting of “cpm”) was determined with a Wallac MicroBeta scintillation counter (Perkin Elmer). […] Kinase activity was evaluated based on a comparison with experiments containing the complete reaction cocktail but no shikonin. A complete reaction cocktail without kinase served as control for unspecific binding of radioactivity to the plate in the absence of protein kinase but in the presence of shikonin. IC50 values were calculated by nonlinear regression using Prism 5.04 (Graphpad, CA, USA).

For a further experiment, the system named is U937 leukemia cells. In words: Resazurin reduction assay (cytotoxicity). It counts as cell-based. The note with it: Homo sapiens, U-937, 24 h treatment, read-out: IC50 (inhibition of U937 proliferation by 50%). The procedure:
Resazurin reduction assay was performed to assess cytotoxicity of shikonin toward U937 cells. The assay is based on reduction of the indicator dye, resazurin, to the highly fluorescent resorufin by viable cells. Nonviable cells rapidly lose the metabolic capacity to reduce resazurin and thus produce no fluorescent signal. Briefly, aliquots of 2 × 10^4 U937 cells per well were seeded in 96-well plates in a total volume of 100 μL. Shikonin was immediately added in varying concentrations in an additional 100 μL of culture medium to obtain a total volume of 200 μL/well. After 24 h, 20 μL resazurin (Sigma-Aldrich, Germany) 0.01% w/v in ddH2O was added to each well and the plates were incubated at 37°C for 4 h. Fluorescence was measured on an Infinite M2000 Pro plate reader (Tecan, Germany) using an excitation wavelength of 544 nm and an emission wavelength of 590 nm. Each assay was done at least two times, with six replicates each. The viability was evaluated based on a comparison with untreated cells. IC50 value represents the shikonin concentrations required to inhibit 50% of cell proliferation and was calculated from a calibration curve by linear regression using Microsoft Excel.
(In general: Alamar Blue is a resazurin reagent that responds to reducing activity.)

T1 sequence (P08069 31-1367): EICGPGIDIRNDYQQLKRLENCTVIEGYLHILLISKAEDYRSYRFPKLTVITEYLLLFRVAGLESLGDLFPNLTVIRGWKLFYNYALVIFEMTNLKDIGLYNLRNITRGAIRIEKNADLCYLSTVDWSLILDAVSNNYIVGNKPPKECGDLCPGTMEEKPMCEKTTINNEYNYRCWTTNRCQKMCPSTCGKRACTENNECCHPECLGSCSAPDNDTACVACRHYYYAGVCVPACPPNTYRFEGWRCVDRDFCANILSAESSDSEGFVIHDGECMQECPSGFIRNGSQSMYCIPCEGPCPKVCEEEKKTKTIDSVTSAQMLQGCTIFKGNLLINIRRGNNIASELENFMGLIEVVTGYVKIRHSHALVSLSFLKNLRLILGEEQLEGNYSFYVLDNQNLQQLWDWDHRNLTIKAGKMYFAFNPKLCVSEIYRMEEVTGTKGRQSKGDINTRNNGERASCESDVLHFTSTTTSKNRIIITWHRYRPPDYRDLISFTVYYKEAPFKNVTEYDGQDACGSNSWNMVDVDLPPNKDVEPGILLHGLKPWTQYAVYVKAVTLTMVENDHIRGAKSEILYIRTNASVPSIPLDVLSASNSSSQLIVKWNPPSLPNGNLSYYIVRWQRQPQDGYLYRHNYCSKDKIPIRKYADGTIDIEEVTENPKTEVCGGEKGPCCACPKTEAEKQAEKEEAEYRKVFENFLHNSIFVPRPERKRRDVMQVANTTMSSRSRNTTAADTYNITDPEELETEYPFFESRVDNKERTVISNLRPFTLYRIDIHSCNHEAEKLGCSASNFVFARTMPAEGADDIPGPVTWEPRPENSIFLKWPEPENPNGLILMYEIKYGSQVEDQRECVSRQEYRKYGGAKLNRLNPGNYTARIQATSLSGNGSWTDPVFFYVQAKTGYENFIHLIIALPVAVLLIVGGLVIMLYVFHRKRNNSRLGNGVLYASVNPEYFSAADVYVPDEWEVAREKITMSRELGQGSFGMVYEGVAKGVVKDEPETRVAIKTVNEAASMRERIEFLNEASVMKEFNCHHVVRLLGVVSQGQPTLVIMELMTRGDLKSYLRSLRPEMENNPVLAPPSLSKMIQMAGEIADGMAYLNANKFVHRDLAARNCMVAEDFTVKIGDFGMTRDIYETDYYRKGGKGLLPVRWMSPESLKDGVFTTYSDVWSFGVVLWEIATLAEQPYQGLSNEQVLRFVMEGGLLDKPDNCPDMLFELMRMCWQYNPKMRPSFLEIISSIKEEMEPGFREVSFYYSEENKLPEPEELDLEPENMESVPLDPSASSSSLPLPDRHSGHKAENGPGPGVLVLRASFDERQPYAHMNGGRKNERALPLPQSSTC

On to `CC(C)=CC[C@@H](O)C1=CC(=O)c2c(O)ccc(O)c2C1=O` [shikonin], for which the IC50 on IGF1R came out at 2.6 µM; in the experiment with U937 leukemia cells, 0.3 µM.
